Measurements as given in US20120029187A1, “HALOALKYLSULFONANILIDE DERIVATIVE” (Nissan Chemical Industries, Ltd., priority 2009, published 2012).

Tests used:
Assay type in all cases: in vivo
transplanted rice = test: Test Example 1: preemergence treatment under submerged conditions, effect on crop; conditions: dose 2.52 g/a
Method in brief: (§1)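 Flooded-paddy preemergence assay; EC diluted with water, surface-applied at weed seeding; doses g/a; rice transplanted at 2.5 leaves; 0–5 mortality score after 3 weeks.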

water foxtail [1] = test: Test Example 4: herbicidal effect in foliage treatment; conditions: dose 3.2 g/a, three weeks after application
Method in brief: (§2)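 14-day greenhouse-grown plants (25–30° C) sprayed on foliage with diluted EC; dose as g/a; effect graded after 3 weeks.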

redroot pigweed [2] = test: as above; conditions: dose 3.2 g/a, three weeks after application
Method in brief: as §2

giant foxtail [3] = test: as above; conditions: dose 3.2 g/a, three weeks after application
Method in brief: as §2

common chickweed [4] = test: as above; conditions: dose 3.2 g/a, three weeks after application
Method in brief: as §2

large crabgrass [5] = test: as above; conditions: dose 3.2 g/a, three weeks after application
Method in brief: as §2

velvetleaf [6] = test: as above; conditions: dose 3.2 g/a, three weeks after application
Method in brief: as §2

barnyardgrass [7] = test: as above; conditions: dose 3.2 g/a, three weeks after application
Method in brief: as §2

beadstraw [8] = test: as above; conditions: dose 3.2 g/a, three weeks after application
Method in brief: as §2

common ragweed [9] = test: as above; conditions: dose 3.2 g/a, three weeks after application
Method in brief: as §2

Italian ryegrass [10] = test: as above; conditions: dose 3.2 g/a, three weeks after application
Method in brief: as §2

posumbu knotweed [11] = test: as above; conditions: dose 3.2 g/a, three weeks after application
Method in brief: as §2

common lambsquater [12] = test: as above; conditions: dose 3.2 g/a, three weeks after application
Method in brief: as §2

bulrush [13] = test: Test Example 2: herbicidal effects during the vegetation period under submerged conditions; conditions: treatment during the vegetation period under submerged conditions; dose 2.52 g/a
Method in brief: (§3)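 Barnyardgrass, bulrush and ducksalad were co-sown in alluvial soil flooded to 4 cm and grown in a greenhouse at 25 to 30° C. At the 1- or 2-leaf stage, water-diluted emulsifiable concentrates went onto the water surface at set doses (g/a). Herbicidal effect was scored three weeks later on a graded scale.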

barnyardgrass [14] = test: as above; conditions: treatment during the vegetation period under submerged conditions; dose 2.52 g/a
Method in brief: as §3

ducksalad [15] = test: as above; conditions: treatment during the vegetation period under submerged conditions; dose 2.52 g/a
Method in brief: as §3

bulrush [16] = test: Test Example 1: herbicidal effects in preemergence treatment under submerged conditions; conditions: dose 2.52 g/a
Method in brief: as §1

barnyardgrass [17] = test: as above; conditions: dose 2.52 g/a
Method in brief: as §1

ducksalad [18] = test: as above; conditions: dose 2.52 g/a
Method in brief: as §1

water foxtail [19] = test: Test Example 3: herbicidal effects in soil treatment; conditions: dose 3.2 g/a
Method in brief: (§4)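 Seeds were sown in sterilized diluvial soil and covered with about 1.5 cm of soil. Compounds, formulated as emulsifiable concentrates and diluted with water, were sprayed evenly over the soil surface at set doses in g/a. Herbicidal effect was scored on a rating scale three weeks later.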

redroot pigweed [20] = test: as above; conditions: dose 3.2 g/a
Method in brief: as §4

giant foxtail [21] = test: as above; conditions: dose 3.2 g/a
Method in brief: as §4

common chickweed [22] = test: as above; conditions: dose 3.2 g/a
Method in brief: as §4

large crabgrass [23] = test: as above; conditions: dose 3.2 g/a
Method in brief: as §4

velvetleaf [24] = test: as above; conditions: dose 3.2 g/a
Method in brief: as §4

barnyardgrass [25] = test: as above; conditions: dose 3.2 g/a
Method in brief: as §4

beadstraw [26] = test: as above; conditions: dose 3.2 g/a
Method in brief: as §4

common ragweed [27] = test: as above; conditions: dose 3.2 g/a
Method in brief: as §4

Italian ryegrass [28] = test: as above; conditions: dose 3.2 g/a
Method in brief: as §4

posumbu knotweed [29] = test: as above; conditions: dose 3.2 g/a
Method in brief: as §4

common lambsquater [30] = test: as above; conditions: dose 3.2 g/a
Method in brief: as §4

Row | SMILES | a: transplanted rice, effect on crop (evaluation scale 0-5) (transplanted rice) | G: water foxtail, herbicidal effect (water foxtail [1]) | K: redroot pigweed, herbicidal effect (redroot pigweed [2]) | E: giant foxtail, herbicidal effect (giant foxtail [3]) | N: common chickweed, herbicidal effect (common chickweed [4]) | D: large crabgrass, herbicidal effect (large crabgrass [5]) | I: velvetleaf, herbicidal effect (velvetleaf [6]) | A: barnyardgrass, herbicidal effect (barnyardgrass [7]) | O: beadstraw, herbicidal effect (beadstraw [8]) | J: common ragweed, herbicidal effect (common ragweed [9]) | H: Italian ryegrass, herbicidal effect (Italian ryegrass [10]) | M: posumbu knotweed, herbicidal effect (posumbu knotweed [11]) | L: common lambsquater, herbicidal effect (common lambsquater [12]) | B: bulrush, herbicidal effect (evaluation scale 0-5) (bulrush [13]) | A: barnyardgrass, herbicidal effect (evaluation scale 0-5) (barnyardgrass [14]) | C: ducksalad, herbicidal effect (evaluation scale 0-5) (ducksalad [15]) | B: bulrush, herbicidal effect (evaluation scale 0-5) (bulrush [16]) | A: barnyardgrass, herbicidal effect (evaluation scale 0-5) (barnyardgrass [17]) | C: ducksalad, herbicidal effect (evaluation scale 0-5) (ducksalad [18]) | G: water foxtail, herbicidal effect (evaluation scale 0-5) (water foxtail [19]) | other results
1 | CC1(C)CC(=O)N(Cc2ccccc2N(C(=O)OCCCl)S(=O)(=O)C(F)(F)F)CO1 [II-28] | 4 (mortality of at least 70% and less than 90%) | 5 (mortality of 90% or above (nearly complete death)) | 0 (mortality of less than 5% (almost ineffective)) | 4 (mortality of at least 70% and less than 90%) | 4 (mortality of at least 70% and less than 90%) | 4 (mortality of at least 70% and less than 90%) | 4 (mortality of at least 70% and less than 90%) | 5 (mortality of 90% or above (nearly complete death)) | 5 (mortality of 90% or above (nearly complete death)) | 3 (mortality of at least 40% and less than 70%) | 3 (mortality of at least 40% and less than 70%) | 4 (mortality of at least 70% and less than 90%) | 1 (mortality of at least 5% and less than 20%) | 5 (mortality of 90% or above (nearly complete death)) | 5 (mortality of 90% or above (nearly complete death)) | 5 (mortality of 90% or above (nearly complete death)) | 5 (mortality of 90% or above (nearly complete death)) | 5 (mortality of 90% or above (nearly complete death)) | 5 (mortality of 90% or above (nearly complete death)) | 5 (mortality of 90% or above (nearly complete death)) | K: redroot pigweed, herbicidal effect (evaluation scale 0-5) (redroot pigweed [20]): 0 (mortality of less than 5% (almost ineffective)); E: giant foxtail, herbicidal effect (evaluation scale 0-5) (giant foxtail [21]): 5 (mortality of 90% or above (nearly complete death)); N: common chickweed, herbicidal effect (evaluation scale 0-5) (common chickweed [22]): 4 (mortality of at least 70% and less than 90%); D: large crabgrass, herbicidal effect (evaluation scale 0-5) (large crabgrass [23]): 5 (mortality of 90% or above (nearly complete death)); I: velvetleaf, herbicidal effect (evaluation scale 0-5) (velvetleaf [24]): 4 (mortality of at least 70% and less than 90%); A: barnyardgrass, herbicidal effect (evaluation scale 0-5) (barnyardgrass [25]): 5 (mortality of 90% or above (nearly complete death)); O: beadstraw, herbicidal effect (evaluation scale 0-5) (beadstraw [26]): 5 (mortality of 90% or above (nearly complete death)); J: common ragweed, herbicidal effect (evaluation scale 0-5) (common ragweed [27]): 4 (mortality of at least 70% and less than 90%); H: Italian ryegrass, herbicidal effect (evaluation scale 0-5) (Italian ryegrass [28]): 2 (mortality of at least 20% and less than 40%); M: posumbu knotweed, herbicidal effect (evaluation scale 0-5) (posumbu knotweed [29]): 5 (mortality of 90% or above (nearly complete death)); L: common lambsquater, herbicidal effect (evaluation scale 0-5) (common lambsquater [30]): 0 (mortality of less than 5% (almost ineffective))
2 | O=C1CC2(CCCCC2)OCN1Cc1ccccc1NS(=O)(=O)C(F)(F)F [II-67] | 0 (mortality of less than 5% (almost ineffective)) | 5 (mortality of 90% or above (nearly complete death)) | 0 (mortality of less than 5% (almost ineffective)) | 5 (mortality of 90% or above (nearly complete death)) | 4 (mortality of at least 70% and less than 90%) | 5 (mortality of 90% or above (nearly complete death)) | 5 (mortality of 90% or above (nearly complete death)) | 5 (mortality of 90% or above (nearly complete death)) | 3 (mortality of at least 40% and less than 70%) | 3 (mortality of at least 40% and less than 70%) | 2 (mortality of at least 20% and less than 40%) | 3 (mortality of at least 40% and less than 70%) | 4 (mortality of at least 70% and less than 90%) | 5 (mortality of 90% or above (nearly complete death)) | 5 (mortality of 90% or above (nearly complete death)) | 5 (mortality of 90% or above (nearly complete death)) | 5 (mortality of 90% or above (nearly complete death)) | 5 (mortality of 90% or above (nearly complete death)) | 5 (mortality of 90% or above (nearly complete death)) | 5 (mortality of 90% or above (nearly complete death)) | K: redroot pigweed, herbicidal effect (evaluation scale 0-5) (redroot pigweed [20]): 3 (mortality of at least 40% and less than 70%); E: giant foxtail, herbicidal effect (evaluation scale 0-5) (giant foxtail [21]): 5 (mortality of 90% or above (nearly complete death)); N: common chickweed, herbicidal effect (evaluation scale 0-5) (common chickweed [22]): 5 (mortality of 90% or above (nearly complete death)); D: large crabgrass, herbicidal effect (evaluation scale 0-5) (large crabgrass [23]): 5 (mortality of 90% or above (nearly complete death)); I: velvetleaf, herbicidal effect (evaluation scale 0-5) (velvetleaf [24]): 5 (mortality of 90% or above (nearly complete death)); A: barnyardgrass, herbicidal effect (evaluation scale 0-5) (barnyardgrass [25]): 5 (mortality of 90% or above (nearly complete death)); O: beadstraw, herbicidal effect (evaluation scale 0-5) (beadstraw [26]): 5 (mortality of 90% or above (nearly complete death)); J: common ragweed, herbicidal effect (evaluation scale 0-5) (common ragweed [27]): 2 (mortality of at least 20% and less than 40%); H: Italian ryegrass, herbicidal effect (evaluation scale 0-5) (Italian ryegrass [28]): 5 (mortality of 90% or above (nearly complete death)); M: posumbu knotweed, herbicidal effect (evaluation scale 0-5) (posumbu knotweed [29]): 5 (mortality of 90% or above (nearly complete death)); L: common lambsquater, herbicidal effect (evaluation scale 0-5) (common lambsquater [30]): 5 (mortality of 90% or above (nearly complete death))
